According to patent US20170232083A1, “METHODS OF DIAGNOSIS AND TREATMENT OF CELIAC DISEASE IN CHILDREN” (priority 2014, published 2017):

Tested on: PBMC (polyclonal gluten-specific T cells) of paediatric and adult CD patients
Experiment: IFN-γ ELISpot of PBMC after 3 day oral wheat challenge (SFU, % of maximal peptide response, dominance scores, EC50; Examples 5-6)
Assay type: cell-based, human
Details: for Cross-reactive T cell response: following wheat challenge
[1] = subject I (3-5yrs/6-10yrs part)
[2] = subject J (3-5yrs/6-10yrs part)
[3] = subject K (3-5yrs/6-10yrs part)
[4] = subject V (3-5yrs/6-10yrs part)
[5] = subject W (3-5yrs/6-10yrs part)
[6] = subject Y (3-5yrs/6-10yrs part)
[7] = subject five (3-5yrs/6-10yrs part)
[8] = subject seven (3-5yrs/6-10yrs part)
[9] = subject six (3-5yrs/6-10yrs part)
[10] = subject ten (3-5yrs/6-10yrs part)
[11] = subject two (3-5yrs/6-10yrs part)

Sequence | Cross-reactive T cell response (subject A, 11-17yrs) [SFU] | Cross-reactive T cell response (subject D, 11-17yrs) [SFU] | Cross-reactive T cell response (subject E, 11-17yrs) [SFU] | Significant response as a percentage of maximal peptide SFU (subject F, 11-17yrs) | Cross-reactive T cell response (subject F, 11-17yrs) [SFU] | Cross-reactive T cell response (subject G, 11-17yrs) [SFU] | Cross-reactive T cell response (subject H) [SFU] | Cross-reactive T cell response [1] [SFU] | Significant response as a percentage of maximal peptide SFU (subject J) | Cross-reactive T cell response [2] [SFU] | Cross-reactive T cell response [3] [SFU] | Cross-reactive T cell response (subject P, 11-17yrs) [SFU] | Significant response as a percentage of maximal peptide SFU (subject Q, 11-17yrs) | Cross-reactive T cell response (subject Q, 11-17yrs) [SFU] | Significant response as a percentage of maximal peptide SFU (subject T, 11-17yrs) | Cross-reactive T cell response (subject T, 11-17yrs) [SFU] | Cross-reactive T cell response (subject U, 11-17yrs) [SFU] | Cross-reactive T cell response [4] [SFU] | Cross-reactive T cell response [5] [SFU] | Cross-reactive T cell response [6] [SFU] | also measured
QPEQPFPLQPEQPVP | 1 | 0 | 9 | ′ (11-20% = ′) | 27 | 2 | 3 | 1 | (6-10% - ^) | 11 | 8 | 12 | ′′ (21-40% = ′′) | 20 | ′ (11-20% = ′) | 16 | 9 | 4 | 4 | 1 | Cross-reactive T cell response [7]: 3 SFU; Cross-reactive T cell response (subject nine, 11-17yrs): 0 SFU; Significant response as a percentage of maximal peptide SFU (subject seven): + (>70% = +); Cross-reactive T cell response [8]: 19 SFU; Cross-reactive T cell response [9]: 2 SFU; Cross-reactive T cell response [10]: 8 SFU; Cross-reactive T cell response [11]: 6 SFU
QPFPQPEQELPLQ | 4 | 7 | 46 | ′ (11-20% = ′) | 31 | 1 | 5 | 6 | ′′ (21-40% = ′′) | 57 | 13 | 17 | ′ (11-20% = ′) | 14 | ′′ (21-40% = ′′) | 36 | 12 | 7 | 0 | 0 | Significant response as a percentage of maximal peptide SFU (subject E, 11-17yrs): ′′ (21-40% = ′′); Significant response as a percentage of maximal peptide SFU (subject K): ′ (11-20% = ′); Significant response as a percentage of maximal peptide SFU (subject U, 11-17yrs): ′ (11-20% = ′); Cross-reactive T cell response [7]: 33 SFU; Cross-reactive T cell response (subject nine, 11-17yrs): 1 SFU; Cross-reactive T cell response [8]: 8 SFU; Cross-reactive T cell response [9]: 5 SFU; Significant response as a percentage of maximal peptide SFU (subject ten): + (>70% = +); Cross-reactive T cell response [10]: 15 SFU; Cross-reactive T cell response [11]: 9 SFU
QPFPQPEQPFPLQ | 5 | 16 | 70 | ′′ (21-40% = ′′) | 64 | 10 | 4 | 13 | ′′′ (41-70% = ′′′) | 88 | 29 | 21 | + (>70% = +) | 83 | + (>70% = +) | 94 | 18 | 22 | 8 | 9 | Significant response as a percentage of maximal peptide SFU (subject D, 11-17yrs): ′′′ (41-70% = ′′′); Significant response as a percentage of maximal peptide SFU (subject E, 11-17yrs): ′′ (21-40% = ′′); Significant response as a percentage of maximal peptide SFU (subject G, 11-17yrs): ′′′ (41-70% = ′′′); Significant response as a percentage of maximal peptide SFU (subject I): + (>70% = +); Significant response as a percentage of maximal peptide SFU (subject K): ′′′ (41-70% = ′′′); Significant response as a percentage of maximal peptide SFU (subject U, 11-17yrs): ′′ (21-40% = ′′); Significant response as a percentage of maximal peptide SFU (subject V): ′′′ (41-70% = ′′′); Significant response as a percentage of maximal peptide SFU (subject five): + (>70% = +); Cross-reactive T cell response [7]: 45 SFU; Cross-reactive T cell response (subject nine, 11-17yrs): 0 SFU; Cross-reactive T cell response [8]: 6 SFU; Significant response as a percentage of maximal peptide SFU (subject six): + (>70% = +); Cross-reactive T cell response [9]: 12 SFU; Significant response as a percentage of maximal peptide SFU (subject ten): + (>70% = +); Cross-reactive T cell response [10]: 13 SFU; Significant response as a percentage of maximal peptide SFU (subject two): + (>70% = +); Cross-reactive T cell response [11]: 65 SFU
QPFPQPEQPFPQS | 4 | 15 | 46 | ′ (11-20% = ′) | 35 | 5 | 4 | 2 | ′′ (21-40% = ′′) | 57 | 18 | 13 | ′′′ (41-70% = ′′′) | 55 | + (>70% = +) | 70 | 27 | 25 | 6 | 4 | Significant response as a percentage of maximal peptide SFU (subject D, 11-17yrs): ′′′ (41-70% = ′′′); Significant response as a percentage of maximal peptide SFU (subject E, 11-17yrs): ′′ (21-40% = ′′); Significant response as a percentage of maximal peptide SFU (subject K): ′′ (21-40% = ′′); Significant response as a percentage of maximal peptide SFU (subject U, 11-17yrs): ′′ (21-40% = ′′); Significant response as a percentage of maximal peptide SFU (subject V): + (>70% = +); Significant response as a percentage of maximal peptide SFU (subject five): ′′′ (41-70% = ′′′); Cross-reactive T cell response [7]: 32 SFU; Cross-reactive T cell response (subject nine, 11-17yrs): 1 SFU; Significant response as a percentage of maximal peptide SFU (subject seven): ′′′ (41-70% = ′′′); Cross-reactive T cell response [8]: 11 SFU; Cross-reactive T cell response [9]: 7 SFU; Significant response as a percentage of maximal peptide SFU (subject ten): + (>70% = +); Cross-reactive T cell response [10]: 12 SFU; Significant response as a percentage of maximal peptide SFU (subject two): ′′′ (41-70% = ′′′); Cross-reactive T cell response [11]: 44 SFU
